# Experimental data from patent publication US9616006B2, “Methods and compositions for treating dermatological diseases and conditions” (priority 2007, dated 2017).
# Assays:
# [1] = test system: human melanocyte cultures; test: Pigment in human melanocyte cultures; format: cell-based; conditions: treated for 9 days
# [2] = test system: tyrosinase; test: DOPA oxidase assay of cell extracts from treated human melanocytes; format: cell-based; conditions: extracts of human melanocytes treated for 9 days
# Experimental: Cell lysates were prepared from human melanocytes. The amount of tyrosinase in these cell lysates was determined by DOPA oxidase assay.
# (§1) FIGS. 14-17 show the skin-lightening effects of topically-applied formulations of isoeugenol and its ester isoeugenol acetate (a.k.a. isoeugenyl acetate) in the treatment of hyperpigmented areas in the skin, wherein a reduction of melanin pigment in the skin is caused by the topical application of the formulations. In addition to blocking a post-tyrosinase step in melanin synthesis, IE and IE acetate can inhibit the expression of the tyrosinase protein in human melanocytes. […] If the cell extracts contain tyrosinase when an aliquot of extract is placed in a tube containing L-DOPA (a tyrosinase substrate) in buffer, the enzyme will convert the DOPA to melanin. The melanin will appear brownish-black in the assay tube. If IE or IE-acetate has inhibited tyrosinase synthesis in melanocytes, then the extracts from these cells will contain no enzyme and will not be able to produce melanin from DOPA in the assay tube. […] In this assay, cell extracts from human melanocytes either left untreated or treated with 200 micromolar of either IE or isoeugenol acetate for 9 days are run on SDS polyacrylamide electrophoresis gels to separate tyrosinase from other proteins. The tyrosinase in the gel is then blotted to a membrane and the tyrosinase detected by staining with a specific anti-tyrosinase antibody. The antibody-bound tyrosinase is then visualized by chemiluminescence.
# [3] = test system: tyrosinase; test: Western immunoblot of tyrosinase abundance in human melanocyte extracts; format: cell-based
# Excerpt: as §1
# [4] = test system: PGE2; test: TPA-induced PGE2 production in keratinocytes (ELISA); format: cell-based, human; conditions: 100 uM
# [5] = test system: IL-6; test: TPA-induced IL-6 production in keratinocytes (ELISA); format: cell-based, human; conditions: 100 uM
# [6] = test system: IL-8; test: TPA-induced IL-8 production in keratinocytes (ELISA); format: cell-based, human; conditions: 100 uM
# [7] = test system: TNF-α; test: TPA-induced TNF-α production in keratinocytes (ELISA); format: cell-based, human
# Experimental: (§2) In one study, various concentrations of DHE were added to culture medium and these media were placed on human fibroblast cell cultures (results shown in FIG. 1). Cells were either not induced or induced with UVB radiation to stimulate cytokine/PGE-2 production. At 24 hours after treatment, the cell culture medium was removed and assayed by ELISA methods for the expression of PGE-2, various cytokines and chemokines.
# (§3) When similar experiments were carried out with human keratinocytes, DHE was again found to markedly suppress the UVR induction of PGE-2, with a concentration of 50 uM inhibiting the production of PGE-2 by over 60% (results shown in FIG. 2). […] Further, since PGE-2 is known to be a principal factor in the development of actinic keratosis and skin cancer, DHE can also be used in treating these conditions.
# Inflammatory mediators produced in the skin contribute to the development and propagation of such diseases as rosacea, psoriasis and atopic dermatitis. While many inflammatory mediators are involved in these diseases, TNF-α is known to be a major cytokine involved in psoriasis. For atopic dermatitis, TNF-α, IL-8, and MCP-1 are important mediators of inflammation in these diseases. DHE is effective in suppressing the TPA-induced (TPA is tetradecanolyl phorbol ester) production of TNF-α by approximately 50% at a 100 micromolar concentration (results shown in FIG. 3).
# (§4) DHE and IE both have inhibitory effects on production of the inflammatory mediators in keratinocytes.
# [8] = test system: PGE2; test: UV-induced PGE2 production in keratinocytes (ELISA); format: cell-based, human
# Experimental: as §2, §3, §4
# [9] = test system: IL-6; test: UV-induced IL-6 production in keratinocytes (ELISA); format: cell-based, human; conditions: 100 uM
# Experimental: as §2, §3, §4
# [10] = test system: IL-8; test: UV-induced IL-8 production in keratinocytes (ELISA); format: cell-based, human; conditions: 100 uM
# Experimental: as §2, §3, §4
# [11] = test system: TNF-α; test: UV-induced TNF-α production in keratinocytes (ELISA); format: cell-based, human; conditions: 100 uM
# Experimental: as §2, §3, §4
# [12] = test system: PGE-2; test: IL-1-induced PGE-2 production in fibroblasts (ELISA); format: cell-based, human; conditions: Fibroblasts (IL-1); 100 uM
# Experimental: (§5) In one study, various concentrations of DHE were added to culture medium and these media were placed on human fibroblast cell cultures (results shown in FIG. 1). […] At 24 hours after treatment, the cell culture medium was removed and assayed by ELISA methods for the expression of PGE-2, various cytokines and chemokines.
# (§6) DHE and IE both have inhibitory effects on the production of the inflammatory mediators in fibroblasts.
# [13] = test system: IL-6; test: IL-1-induced IL-6 production in fibroblasts (ELISA); format: cell-based, human; conditions: Fibroblasts (IL-1); 100 uM
# Experimental: as §5, §6
# [14] = test system: IL-8; test: IL-1-induced IL-8 production in fibroblasts (ELISA); format: cell-based, human; conditions: Fibroblasts (IL-1); 100 uM
# [15] = test system: PGE-2; test: UV-induced PGE-2 production in fibroblasts (ELISA); format: cell-based, human
# Experimental: as §2
# As is shown in FIG. 1, UV radiation (UVR) treatment of fibroblasts results in a 6 fold increase in PGE-2.
# as §6
# [16] = test system: IL-6; test: UV-induced IL-6 production in fibroblasts (ELISA); format: cell-based, human; conditions: 100 uM
# Experimental: as §2, §6
# [17] = test system: IL-8; test: UV-induced IL-8 production in fibroblasts (ELISA); format: cell-based, human; conditions: 100 uM
# Experimental: as §2, §6
# [18] = test system: MCP-1; test: LPS-induced MCP-1 production in monocytes; format: cell-based
# Excerpt: (§7) DHE and IE both have inhibitory effects on the production of the inflammatory mediators in monocytes.
# [19] = test system: IL-12; test: LPS-induced IL-12 production in monocytes; format: cell-based; conditions: 100 uM
# Excerpt: as §7
# [20] = test system: TNF-α; test: LPS-induced TNF-α production in monocytes; format: cell-based
# Excerpt: as §7
# [21] = test system: IL-8; test: LPS-induced IL-8 production in monocytes; format: cell-based
# Excerpt: as §7
# [22] = test system: MCP-1; test: TNF-α-induced MCP-1 production in monocytes; format: cell-based; conditions: 100 uM
# Excerpt: as §7
# [23] = test system: IL-8; test: TNF-α-induced IL-8 production in monocytes; format: cell-based; conditions: 100 uM
# Excerpt: as §7
# [24] = test system: IL-12; test: TNF-α-induced IL-12 production in monocytes; format: cell-based; conditions: 100 uM
# Excerpt: as §7
# [25] = test system: collagen 1 mRNA; test: Collagen mRNA in fibroblasts by RT-PCR; format: cell-based, human; conditions: fibroblast cell cultures treated 72 hours
# Excerpt: (§8) The presently claimed and disclosed inventive concept(s) further contemplates use of various DHE, IE and EV compositions and salts, esters, ethers, and derivatives thereof to mitigate the effects of aging on the skin. For all aging studies, normal human fibroblast cell cultures were used. These cells normally produce collagen, elastin and hyaluronic acid. As the skin ages, the fibroblasts in the dermis lose their ability to produce these three key components of skin, and the skin consequently loses elasticity, thickness and smooth texture. In addition, as fibroblasts age, they increase the expression of certain enzymes that destroy collagen and elastin. There are about 13 of these enzymes, collectively referred to as MMPs (matrix metalloproteinases). One of the principal MMPs, MMP-1, is responsible for collagen degradation. […] Fibroblast cell cultures were treated with either IE, DHE or EV for 72 hours at which time the amount of collagen mRNA present in the cells was determined.
# [26] = test system: elastin mRNA; test: Elastin mRNA in human dermal fibroblasts by RT-PCR; format: cell-based; conditions: 72 hours
# Excerpt: as §8, with “In addition, as fibroblasts age, they increase the expression of certain enzymes that destroy collagen and elastin.” left out, “The image is from an electrophoresis gel of DNA amplified by PCR from fibroblast mRNA. This gel was analyzed and” for “Fibroblast cell cultures were treated with either IE, DHE or EV for 72 hours at which time”, “density” for “amount”, “each band quantified by image analysis software.” for “collagen mRNA present in the cells was determined.”
# [27] = test system: HAS-2 (Hyaluronic acid synthase-2); test: HAS-2 mRNA in fibroblasts by RT-PCR; format: cell-based, human; conditions: 72 hours
# Excerpt: (§9) The presently claimed and disclosed inventive concept(s) further contemplates use of various DHE, IE and EV compositions and salts, esters, ethers, and derivatives thereof to mitigate the effects of aging on the skin. For all aging studies, normal human fibroblast cell cultures were used. These cells normally produce collagen, elastin and hyaluronic acid. As the skin ages, the fibroblasts in the dermis lose their ability to produce these three key components of skin, and the skin consequently loses elasticity, thickness and smooth texture. In addition, as fibroblasts age, they increase the expression of certain enzymes that destroy collagen and elastin. There are about 13 of these enzymes, collectively referred to as MMPs (matrix metalloproteinases). One of the principal MMPs, MMP-1, is responsible for collagen degradation. For experiments herein to determine the effects of DHE, IE and EV on collagen, elastin and hyaluronic acid, fibroblasts were treated with the compounds for 72 hours, mRNA was then isolated, and analyzed for abundance by RT-PCR (Reverse transcriptase-Polymerase Chain Reaction).
# DHE, IE and EV, are also shown herein to stimulate mRNA for HAS-2. HAS-2 (Hyaluronic acid synthase-2) is the enzyme that manufactures hyaluronic acid (HA) in the skin. HA is a glycosaminoglycan important for maintaining moisture and suppleness in the skin. […] As the skin ages, the production of HA decreases and this causes the skin to sag and become thin.
# [28] = test system: TIMP-1; test: TIMP-1 mRNA in fibroblasts by PCR; format: cell-based, human
# Excerpt: as §9
# Fibroblasts in the skin not only produce enzymes (MMPs) that destroy the skin matrix but they also produce proteins (Tissue Inhibitors of Metalloproteinases, i.e., TIMPS) that inhibit these enzymes. There are several TIMPs, but one that is most important for inhibiting MMPs is TIMP-1. […] Shown in FIG. 11 is PCR data showing the up-regulation of TIMP-1 mRNA by these compounds.
# [29] = monocytes, LPS-induced (FIG. 4)
smiles,measurement,setting,value
CC=Cc1ccc(OC(C)=O)c(OC)c1 [isoeugenol acetate],pigment in human melanocyte cultures,[1],loss of pigment
same,tyrosinase activity / melanin made from L-DOPA by cell extracts,[2]; listed as IE-acetate,very little melanin was made
same,tyrosinase activity / melanin made from L-DOPA by cell extracts,[2]; listed as TH-213,absence of tyrosinase activity
same,tyrosinase abundance (relative densitometric units),"[3]; human melanocyte extracts, 200 μM, 9 days, control approximately 7.25 RDU",~3.75 RDU
same,tyrosinase present (western immunoblot),[3]; human melanocytes treated with 200 micromolar for 9 days,almost no detectable tyrosinase
"CCCc1ccc(O)c(OC)c1 [DHE, dihydroeugenol]",Percent Inhibition of PGE2,[4],77%
same,Percent Inhibition of IL-6,[5],30%
same,Percent Inhibition of IL-8,[6],45%
same,Percent Inhibition of TNF-α,"[7]; Keratinocytes (TPA), 100 uM",12%
same,suppression of TPA-induced production of TNF-α,"[7]; keratinocytes (FIG. 3), 100 micromolar",approximately 50%
same,Percent Inhibition of PGE2,"[8]; Keratinocytes (UV), 100 uM",68%
same,inhibition of UVR-induced production of PGE-2,"[8]; human keratinocytes, 50 uM",over 60%
same,Percent Inhibition of IL-6,[9],30%
same,Percent Inhibition of IL-8,[10],40%
same,Percent Inhibition of TNF-α,[11],31%
same,Percent Inhibition of PGE-2,[12],86%
same,Percent Inhibition of IL-6,[13],47%
same,Percent Inhibition of IL-8,[14],46%
same,Percent Inhibition of PGE-2,"[15]; Fibroblasts (UV), 100 uM",67%
same,UVR induction of PGE-2,"[15]; human fibroblasts, 10 micromolar in culture media after irradiation, 24 hours",completely blocked
same,Percent Inhibition of IL-6,[16],49%
same,Percent Inhibition of IL-8,[17],11%
same,Percent Inhibition of MCP-1,"[18]; Monocytes (LPS), 100 uM",60%
same,production of the chemokine MCP-1,[18]; [29],can inhibit the production
same,Percent Inhibition of IL-12,[19],66%
same,Percent Inhibition of TNF-α,"[20]; Monocytes (LPS), 100 uM",78%
same,production of the cytokine TNF-α,[20]; [29],can inhibit the production
same,Percent Inhibition of IL-8,"[21]; Monocytes (LPS), 100 uM",70%
same,production of the chemokine IL-8,[21]; [29],can inhibit the production
same,Percent Inhibition of MCP-1,[22],46%
same,Percent Inhibition of IL-8,[23],72%
same,Percent Inhibition of IL-12,[24],98%
same,collagen production (collagen mRNA),[25],stimulation
same,elastin levels (elastin mRNA),[26],increase
same,mRNA for HAS-2,[27],stimulate
same,production of TIMP-1 (TIMP-1 mRNA),[28],significantly stimulate
